In brackets after ≈: the same amount, converted by molar mass. A value given as a limit tells only on which side of the number the result lay.

The test system of data set [1] is Rattus norvegicus. The experiment in a line: Anti-hypertensive activity in conscious spontaneously hypertensive Okamoto rat assessed as reduction in systolic blood pressure at 1 mg/kg, po measured up to 6 hrs post dose relative to control. Format: functional. Also on record: scale not given: the % may be the effect or the level left.
The test system of data set [2] is Rattus norvegicus. Description: Anti-hypertensive activity in conscious spontaneously hypertensive Okamoto rat assessed as reduction in systolic blood pressure at 0.1 mg/kg, po measured up to 6 hrs post dose relative to control. Further details: scale not given: the % may be the effect or the level left. Format: functional.
The test system of data set [3] is Rattus norvegicus. The experiment in a line: Anti-hypertensive activity in conscious spontaneously hypertensive Okamoto rat assessed as reduction in systolic blood pressure at 0.3 mg/kg, po measured up to 6 hrs post dose relative to control. The format is functional. Further details: scale not given: the % may be the effect or the level left.
In data set [4] the test system is Trypanosoma brucei brucei. Description: Antitrypanosomal activity against Trypanosoma brucei brucei after 72 hrs by resazurin-based fluorescence assay. Format: functional. (In general: Alamar Blue is a resazurin reagent that responds to reducing activity.)
The target in a further data set is D(2) dopamine receptor (Homo sapiens, UniProt P14416). The experiment in a line: Displacement of [3H]methylspiperone from human D2 receptor expressed in HEK cells. The format is cell-based.
Chain of D(2) dopamine receptor (P14416 whole entry): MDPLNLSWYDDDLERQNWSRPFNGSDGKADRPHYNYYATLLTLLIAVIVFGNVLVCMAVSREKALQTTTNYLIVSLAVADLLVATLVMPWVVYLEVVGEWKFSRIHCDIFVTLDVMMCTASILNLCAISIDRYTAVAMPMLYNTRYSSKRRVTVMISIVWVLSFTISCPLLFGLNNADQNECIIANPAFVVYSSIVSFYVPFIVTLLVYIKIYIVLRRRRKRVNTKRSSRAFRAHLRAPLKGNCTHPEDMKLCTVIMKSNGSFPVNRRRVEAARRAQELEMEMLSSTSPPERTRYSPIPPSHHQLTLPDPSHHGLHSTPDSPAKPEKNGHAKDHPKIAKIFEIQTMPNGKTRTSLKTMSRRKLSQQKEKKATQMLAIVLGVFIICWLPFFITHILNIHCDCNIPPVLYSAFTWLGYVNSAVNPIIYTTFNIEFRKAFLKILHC
Data set [5] deals with 5-hydroxytryptamine receptor 2A (Homo sapiens, UniProt P28223).
Chain of 5-hydroxytryptamine receptor 2A (P28223 whole entry): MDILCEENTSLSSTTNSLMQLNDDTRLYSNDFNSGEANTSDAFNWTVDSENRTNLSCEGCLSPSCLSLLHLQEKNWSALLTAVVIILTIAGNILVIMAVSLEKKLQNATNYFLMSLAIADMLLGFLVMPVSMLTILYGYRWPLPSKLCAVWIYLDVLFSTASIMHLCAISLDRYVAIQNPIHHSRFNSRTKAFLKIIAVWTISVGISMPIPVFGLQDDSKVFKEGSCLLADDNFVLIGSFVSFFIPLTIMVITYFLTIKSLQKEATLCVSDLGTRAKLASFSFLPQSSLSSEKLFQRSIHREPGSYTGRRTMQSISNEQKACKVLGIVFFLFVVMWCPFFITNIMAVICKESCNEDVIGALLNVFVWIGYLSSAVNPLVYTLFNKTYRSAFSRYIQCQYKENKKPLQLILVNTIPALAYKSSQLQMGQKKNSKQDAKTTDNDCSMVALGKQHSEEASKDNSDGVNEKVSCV
The species named for another data set is Homo sapiens. The experiment in a line: Antagonist activity at nAChR (unknown origin) relative to (+/-)-mecamylamine.
The subject of another data set is 1A9. The experiment in a line: Cytotoxicity against human 1A9 cells. Format: functional, cell-based.
In data set [6] the target is Insulin-like growth factor 1 receptor (Homo sapiens, UniProt P08069). Description: Antagonist activity at human GST-tagged IGF-1R (950 to […] residues) expressed in baculovirus after 5 mins in presence of [gamma33P]-ATP by top count method.
Chain of Insulin-like growth factor 1 receptor (P08069 31-736 limits assumed): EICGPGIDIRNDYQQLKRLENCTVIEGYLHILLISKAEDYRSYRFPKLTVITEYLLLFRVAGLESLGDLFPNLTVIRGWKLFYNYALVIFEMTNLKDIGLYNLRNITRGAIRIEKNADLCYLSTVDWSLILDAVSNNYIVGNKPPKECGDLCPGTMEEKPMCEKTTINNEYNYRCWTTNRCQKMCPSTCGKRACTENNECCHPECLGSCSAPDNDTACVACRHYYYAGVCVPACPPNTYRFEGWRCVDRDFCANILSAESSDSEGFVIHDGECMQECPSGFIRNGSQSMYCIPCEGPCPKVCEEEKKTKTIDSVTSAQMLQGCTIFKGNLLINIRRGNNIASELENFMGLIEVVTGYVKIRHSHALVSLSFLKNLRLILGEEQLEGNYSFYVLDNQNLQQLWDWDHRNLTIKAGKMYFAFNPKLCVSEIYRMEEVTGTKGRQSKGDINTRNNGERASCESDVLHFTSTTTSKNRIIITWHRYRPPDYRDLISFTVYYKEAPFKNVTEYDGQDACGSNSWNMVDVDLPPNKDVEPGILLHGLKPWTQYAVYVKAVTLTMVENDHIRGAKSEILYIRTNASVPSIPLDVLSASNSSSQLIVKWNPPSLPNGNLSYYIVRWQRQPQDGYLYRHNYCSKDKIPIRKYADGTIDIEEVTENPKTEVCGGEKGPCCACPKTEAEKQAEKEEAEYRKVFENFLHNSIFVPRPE
Chain of Insulin-like growth factor 1 receptor (P08069 741-1367 limits assumed): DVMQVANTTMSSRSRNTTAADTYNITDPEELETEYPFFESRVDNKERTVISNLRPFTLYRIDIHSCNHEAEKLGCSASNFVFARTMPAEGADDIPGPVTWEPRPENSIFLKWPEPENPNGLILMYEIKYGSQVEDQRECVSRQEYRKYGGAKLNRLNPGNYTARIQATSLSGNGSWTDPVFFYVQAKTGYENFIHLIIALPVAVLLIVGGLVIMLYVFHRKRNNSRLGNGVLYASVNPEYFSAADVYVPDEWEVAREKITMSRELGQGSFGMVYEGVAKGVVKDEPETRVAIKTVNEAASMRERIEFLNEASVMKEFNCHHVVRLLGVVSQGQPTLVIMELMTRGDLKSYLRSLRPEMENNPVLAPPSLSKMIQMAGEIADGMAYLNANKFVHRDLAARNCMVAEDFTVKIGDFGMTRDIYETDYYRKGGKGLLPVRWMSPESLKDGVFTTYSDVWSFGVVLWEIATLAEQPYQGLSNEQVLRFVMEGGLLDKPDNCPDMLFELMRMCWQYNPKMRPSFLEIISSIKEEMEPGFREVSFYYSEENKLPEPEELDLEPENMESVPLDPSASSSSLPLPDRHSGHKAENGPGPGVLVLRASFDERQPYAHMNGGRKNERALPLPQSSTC
The target in data set [7] is Prothrombin (Bos taurus, UniProt P00735). Description: Inhibition of bovine plasma thrombin using chromogenix AB as substrate after 30 secs by UV-spectrophotometry.
The subject of another data set is Clostridioides difficile. Description: Antibacterial activity against Clostridium difficile. Format: functional.
Data set [8] deals with Retinoic acid receptor RXR-beta (Homo sapiens, UniProt P28702). The experiment in a line: Agonist activity at RXRbeta (unknown origin).
Chain of Retinoic acid receptor RXR-beta (P28702 whole entry): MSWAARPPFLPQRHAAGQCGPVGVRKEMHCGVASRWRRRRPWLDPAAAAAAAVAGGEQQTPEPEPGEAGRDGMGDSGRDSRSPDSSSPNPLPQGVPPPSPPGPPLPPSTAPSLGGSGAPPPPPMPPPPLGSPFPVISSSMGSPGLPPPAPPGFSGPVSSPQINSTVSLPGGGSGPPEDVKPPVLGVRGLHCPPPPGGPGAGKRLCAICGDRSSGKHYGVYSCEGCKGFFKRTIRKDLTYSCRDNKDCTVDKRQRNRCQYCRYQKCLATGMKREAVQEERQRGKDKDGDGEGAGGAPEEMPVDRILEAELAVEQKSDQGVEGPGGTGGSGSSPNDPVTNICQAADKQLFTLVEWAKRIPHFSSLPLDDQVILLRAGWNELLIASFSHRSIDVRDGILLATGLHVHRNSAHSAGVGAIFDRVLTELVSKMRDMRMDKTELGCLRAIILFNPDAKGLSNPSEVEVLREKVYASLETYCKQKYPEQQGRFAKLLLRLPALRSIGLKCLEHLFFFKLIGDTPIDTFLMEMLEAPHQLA
The target in data set [9] is Retinoic acid receptor gamma (Homo sapiens, UniProt P13631). Description: Agonist activity at RARgamma (unknown origin).
Chain of Retinoic acid receptor gamma (P13631 whole entry): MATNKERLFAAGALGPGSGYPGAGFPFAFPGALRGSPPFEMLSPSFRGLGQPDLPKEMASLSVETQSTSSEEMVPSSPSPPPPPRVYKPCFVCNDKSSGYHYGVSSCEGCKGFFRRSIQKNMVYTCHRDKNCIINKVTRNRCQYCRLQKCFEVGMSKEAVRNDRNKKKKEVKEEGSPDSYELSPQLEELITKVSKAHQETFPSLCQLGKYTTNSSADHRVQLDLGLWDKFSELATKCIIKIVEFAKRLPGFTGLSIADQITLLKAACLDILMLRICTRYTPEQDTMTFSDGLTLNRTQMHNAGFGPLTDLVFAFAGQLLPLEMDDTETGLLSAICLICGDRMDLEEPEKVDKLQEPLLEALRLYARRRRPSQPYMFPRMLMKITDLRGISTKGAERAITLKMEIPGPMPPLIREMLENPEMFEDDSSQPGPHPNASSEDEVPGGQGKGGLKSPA
For data set [10], the target named is Retinoic acid receptor RXR-gamma (Homo sapiens, UniProt P48443). The experiment in a line: Agonist activity at RXRgamma (unknown origin).
Chain of Retinoic acid receptor RXR-gamma (P48443 whole entry): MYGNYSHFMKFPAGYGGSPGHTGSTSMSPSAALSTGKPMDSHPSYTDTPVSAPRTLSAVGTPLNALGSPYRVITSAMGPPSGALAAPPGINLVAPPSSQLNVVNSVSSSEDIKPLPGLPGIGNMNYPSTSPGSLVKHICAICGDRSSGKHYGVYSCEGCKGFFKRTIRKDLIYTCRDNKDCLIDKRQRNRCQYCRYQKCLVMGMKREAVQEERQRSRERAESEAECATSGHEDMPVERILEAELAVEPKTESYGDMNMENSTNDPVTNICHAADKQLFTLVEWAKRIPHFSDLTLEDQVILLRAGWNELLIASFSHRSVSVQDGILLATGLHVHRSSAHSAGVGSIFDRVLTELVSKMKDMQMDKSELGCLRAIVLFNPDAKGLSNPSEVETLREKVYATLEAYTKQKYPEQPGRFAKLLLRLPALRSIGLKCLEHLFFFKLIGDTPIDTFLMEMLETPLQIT
The target of data set [11] is Retinoic acid receptor beta (Homo sapiens, UniProt P10826). Description: Agonist activity at RARbeta (unknown origin).
Chain of Retinoic acid receptor beta (P10826 whole entry): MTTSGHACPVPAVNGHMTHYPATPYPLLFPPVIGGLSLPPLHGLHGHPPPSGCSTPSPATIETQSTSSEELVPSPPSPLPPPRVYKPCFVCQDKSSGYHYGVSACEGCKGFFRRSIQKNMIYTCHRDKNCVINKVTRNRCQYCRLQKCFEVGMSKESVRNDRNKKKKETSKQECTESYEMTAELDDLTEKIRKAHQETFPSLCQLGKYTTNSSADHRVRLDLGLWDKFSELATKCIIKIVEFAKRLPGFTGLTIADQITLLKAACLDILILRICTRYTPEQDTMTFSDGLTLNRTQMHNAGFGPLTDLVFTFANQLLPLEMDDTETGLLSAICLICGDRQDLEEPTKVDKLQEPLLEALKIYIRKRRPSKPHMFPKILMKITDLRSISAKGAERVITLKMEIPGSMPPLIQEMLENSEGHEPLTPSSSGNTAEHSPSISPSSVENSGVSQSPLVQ
For data set [12], the target named is Retinoic acid receptor alpha (Homo sapiens, UniProt P10276). The experiment in a line: Agonist activity at RARaplha (unknown origin).
For a further data set, the system named is Enterococcus faecalis. Description: Antibacterial activity against Enterococcus faecalis. Format: functional.
The nature of data set [13]: Clearance in po dosed rat. The format is ADME, organism-based. To be noted: in vivo.
The nature of data set [14]: Half life in po dosed rat. Format: ADME, organism-based. The settings on record: in vivo.
In data set [15] the target is Sodium/hydrogen exchanger 1 (Homo sapiens, UniProt P19634). The experiment in a line: Inhibition of human NHE1 by cell based assay.
Chain of Sodium/hydrogen exchanger 1 (P19634 whole entry): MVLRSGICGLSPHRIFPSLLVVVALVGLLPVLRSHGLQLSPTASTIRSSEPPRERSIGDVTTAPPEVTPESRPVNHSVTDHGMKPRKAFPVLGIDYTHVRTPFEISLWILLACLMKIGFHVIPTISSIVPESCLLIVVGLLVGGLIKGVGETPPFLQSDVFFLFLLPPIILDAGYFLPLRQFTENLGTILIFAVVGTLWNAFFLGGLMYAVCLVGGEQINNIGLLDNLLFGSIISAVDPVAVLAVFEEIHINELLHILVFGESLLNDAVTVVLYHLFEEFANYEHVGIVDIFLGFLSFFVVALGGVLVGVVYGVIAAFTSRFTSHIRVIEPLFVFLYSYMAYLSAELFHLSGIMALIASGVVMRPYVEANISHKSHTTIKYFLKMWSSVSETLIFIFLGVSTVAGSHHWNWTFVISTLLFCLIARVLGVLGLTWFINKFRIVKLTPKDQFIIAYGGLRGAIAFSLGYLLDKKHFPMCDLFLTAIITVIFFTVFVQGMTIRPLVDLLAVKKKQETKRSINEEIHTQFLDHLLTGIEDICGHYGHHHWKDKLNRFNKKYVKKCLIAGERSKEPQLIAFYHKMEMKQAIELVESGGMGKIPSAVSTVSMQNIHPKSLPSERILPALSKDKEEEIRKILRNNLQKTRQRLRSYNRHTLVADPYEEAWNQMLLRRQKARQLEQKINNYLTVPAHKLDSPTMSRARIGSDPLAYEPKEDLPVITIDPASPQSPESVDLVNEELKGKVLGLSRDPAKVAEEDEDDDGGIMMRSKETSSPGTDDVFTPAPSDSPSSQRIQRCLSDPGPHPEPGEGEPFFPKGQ
Data set [16] concerns the target Prothrombin (Homo sapiens, UniProt P00734). Description: Inhibition of human plasma thrombin using chromogenix AB as substrate after 30 secs by UV-spectrophotometry.

In the case of `CC1(C)Oc2ccc(C#N)cc2C(N2CCCC2=O)C1O` (racemic) [CROMAKALIM], the results for the Activity in the data set on Rattus norvegicus [1], with Rattus norvegicus [2] and in the data set on Rattus norvegicus [3] were 47%, 13% and 39%, respectively.

As to `CC1(C)OB(O)c2cc(NC(=O)c3ccc(F)cc3C(F)(F)F)ccc21` [ACOZIBOROLE], the IC50 in [4] stood at 556 nM.

`CC1(C)Oc2ccc(C#N)cc2C(N2CCCC2=O)C1O` (stereo in doubt; 110) [CROMAKALIM]: the Activity in the data set on Rattus norvegicus [2] turned out to be 31%; in the data set on Rattus norvegicus [3], 47%.

As to `CC1(C)CC(=O)N(CCCCN2CCN(c3ncccn3)CC2)C(=O)C1` [GEPIRONE], the Ki is 4320 nM on D(2) dopamine receptor and 3630 nM in [5].

In turn, `CNC1C[C@H]2CC[C@H]1C2` (mixture of isomers) returned a fold change (FC) in the data set listed under Homo sapiens greater than 40.

For the compound `CC1(C)Oc2ccc([N+](=O)[O-])cc2[C@@H](N2CCCC2=O)[C@@H]1O`, the values for the Activity in the data set on Rattus norvegicus [1] and with Rattus norvegicus [3] were 63% and 27%, respectively.

In turn, `CN[C@@]1(C)[C@H]2CC[C@@H](C2)C1(C)C` yielded a fold change (FC) in the data set filed under Homo sapiens of 3.

In the data set on 1A9, `CC(=O)O[C@@]12CO[C@@H]1C[C@H](O)[C@@]1(C)C(=O)[C@H](O)C3=C(C)[C@@H](OC(=O)[C@H](O)[C@@H](NC(=O)OC(C)(C)C)c4ccccc4)C[C@@](O)([C@@H](OC(=O)c4ccccc4)[C@H]21)C3(C)C` [DOCETAXEL ANHYDROUS] had an IC50 of 3.55 nM.

Consider `CC(C)(Oc1cccc(-c2cn([C@H]3C[C@@H](CN4CCC4)C3)c3ncnc(N)c23)c1)[C@@H]1CCCO1`, for which, in data set [6], the IC50 stood at 10 nM.

`C[C@H]1CNc2c(cccc2S(=O)(=O)N[C@@H](CCCNC(=N)N)C(=O)N2CCC(CCO)CC2)C1` showed a Ki on Prothrombin [7] of 50 nM.

For `CCc1c(Cl)c(O)c(Cl)c(O)c1C(=O)O[C@H]1[C@H](O)[C@H](OC)[C@H](OC/C2=C\C=C\C[C@H](O)/C(C)=C/[C@H](CC)[C@@H](O[C@@H]3OC(C)(C)[C@@H](OC(=O)C(C)C)[C@H](O)[C@@H]3O)/C(C)=C/C(C)=C/C[C@H]([C@@H](C)O)OC2=O)O[C@@H]1C`, the MIC90 in the data set with Clostridioides difficile lay within 0.125 to 0.25 µg/mL (≈ 0.118 to 0.236 µM).

Regarding `C=C(c1ccc(C(=O)O)cc1)c1cc2c(cc1C)C(C)(C)CCC2`, the EC50 in data set [8] is 770 nM; in data set [9], greater than 10000 nM; in data set [10] it was 600 nM; in [11], greater than 10000 nM; in data set [12], greater than 10000 nM.

On to `CC1=C[C@@H]2[C@@H]([C@@H]3[C@H]1\C=C/C=C/C=C\[C@@H](O)[C@H](C)[C@H](O)C/C=C(C)/C=C/C(=O)O[C@H]3c1ccc(O)cc1)C(C)(C)C[C@@]2(C)O`, for which, in the data set on Enterococcus faecalis, inhibition of growth (MIC) required 0.3 µg/mL (≈ 0.51 µM).

Take `N=C(N)NC(=O)[C@H]1C[C@@H]1c1cccc2c1CCO2`: the CL/F in [13] was found to be 120 mL/min/kg.

For the compound `O=C(Nc1ccc2c(c1)B(O)OC2)c1ccc(F)cc1C(F)(F)F`, in data set [4], the midpoint of inhibition, the IC50, lay at 180 nM.

The compound `C/C(=C\c1csc(C)n1)[C@@H]1C[C@@H]2O[C@]2(C)CCC[C@H](C)[C@H](O)[C@@H](C)C(=O)C(C)(C)[C@@H](O)CC(=O)O1` [PATUPILONE] displayed an IC50 in the data set with 1A9 of 0.06 nM.

As for `CC1(C)[C@H](C(=O)N=C(N)N)[C@H]1c1cccc2c1CCO2`, the half-life in data set [14] is 3 h. Moreover, the CL/F in [13] was 74 mL/min/kg. This compound also yielded an IC50 in data set [15] of 10 nM.

The compound `C/C(=C\c1csc(C)n1)[C@@H]1C[C@@H]2O[C@]2(C)CCC[C@H](C)[C@H](O)[C@@H](C)C(=O)C(C)(C)[C@@H](O)CC(=O)N1` [IXABEPILONE] showed a half-inhibitory concentration (IC50) with 1A9 of 6.65 nM.

For the compound `CC1(C)CNc2c(cccc2S(=O)(=O)N[C@@H](CCCNC(=N)N)C(=O)N2CCC(CCO)CC2)C1`, the Ki on Prothrombin [7] stood at 50 nM; at Prothrombin [16] it was 30 nM.

One may read the IC50 as the concentration that inhibits the measured activity by half. In general, Ki refers to a dissociation constant, usually derived from enzyme kinetics or from competition with a known ligand. The term MIC90 denotes an inhibitory concentration at the 90% level, which refers to growth in some studies and to a panel of isolates in others. As usually defined, the EC50 is the concentration giving half of the maximal effect. Usually MIC stands for the smallest concentration in the dilution series that meets the test's criterion for growth inhibition. What is called CL/F is the apparent clearance, not corrected for the fraction that reaches the circulation. Usually half-life stands for how long it takes for the measured level to halve.

Values taken from ChEMBL document CHEMBL4033775, “Natural-Products-Inspired Use of the gem-Dimethyl Group in Medicinal Chemistry” (J Med Chem, 2018).
